# Data: PubChem BioAssay AID1963870 (Molecular Pharmacology Branch, DTP, NCI, 2024)
# System: 292921-168-R-J2-PDC KRAS tumor spheroid viability
# Experiment: Anticancer human tumor 292921-168-R-J2-PDC patient-derived pancreatic carcinoma cell line growth inhibition [KRAS2]
# Details: spheroids with HUVEC and MSC; for viability, T/C: stronger effect = lower value
# Procedure, shortened: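 KRAS-mutant tumor cells were grown as spheroids with HUVEC endothelial cells and human MSCs as stroma. Targeted agents were tested alone and with KRAS pathway inhibitors. Doses started at or near clinical Cmax, or 10 microM, descending half-log.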
# [1] = curve of first compound, second compound 0.1 µM
# [2] = curve of first compound, second compound 0.316 µM
# [3] = curve of first compound, second compound 1 µM
# [4] = curve of first compound, second compound 3.16 µM
# [5] = curve of first compound, second compound 10 µM
# [6] = second compound 0.1 µM, first compound 0.0316 µM
# [7] = second compound 0.1 µM, first compound 0.1 µM
# [8] = second compound 0.1 µM, first compound 0.316 µM
# [9] = second compound 0.1 µM, first compound 1 µM
# [10] = second compound 0.1 µM, first compound 3.16 µM
# [11] = second compound 0.1 µM, first compound 10 µM
# [12] = second compound 0.316 µM, first compound 0.0316 µM
# [13] = second compound 0.316 µM, first compound 0.1 µM
# [14] = second compound 0.316 µM, first compound 0.316 µM
# [15] = second compound 0.316 µM, first compound 1 µM
# [16] = second compound 0.316 µM, first compound 3.16 µM
# [17] = second compound 0.316 µM, first compound 10 µM
# [18] = second compound 1 µM, first compound 0.0316 µM
# [19] = second compound 1 µM, first compound 0.1 µM
# [20] = second compound 1 µM, first compound 0.316 µM
# [21] = second compound 1 µM, first compound 1 µM
# [22] = second compound 1 µM, first compound 3.16 µM
# [23] = second compound 1 µM, first compound 10 µM
# [24] = second compound 3.16 µM, first compound 0.0316 µM
# [25] = second compound 3.16 µM, first compound 0.1 µM
# [26] = second compound 3.16 µM, first compound 0.316 µM
# [27] = second compound 3.16 µM, first compound 1 µM
# [28] = second compound 3.16 µM, first compound 3.16 µM
# [29] = second compound 3.16 µM, first compound 10 µM
# [30] = second compound 10 µM, first compound 0.0316 µM
# [31] = second compound 10 µM, first compound 0.1 µM
# [32] = second compound 10 µM, first compound 0.316 µM
# [33] = second compound 10 µM, first compound 1 µM
# [34] = second compound 10 µM, first compound 3.16 µM
# [35] = second compound 10 µM, first compound 10 µM
# 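Also: drug exposure lasted seven days after spheroids formed for three days.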
# 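For viability, T/C in this document: percent of DMSO vehicle control viability which is 100%.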
smiles,measurement,setting,value
COC(=O)c1ccc2c(C(=Nc3ccc(N(C)C(=O)CN4CCN(C)CC4)cc3)c3ccccc3)c(O)[nH]c2c1 + C=CC(=O)N1CCN(c2nc(=O)n(-c3c(C)ccnc3C(C)C)c3nc(-c4c(O)cccc4F)c(F)cc23)C(C)C1,IC50,[1],< 31.6 nM
same,IC50,[2],< 31.6 nM
same,IC50,[3],58.8 nM
same,IC50,[4],41.8 nM
same,IC50,[5],< 31.6 nM
same,"viability, T/C",[6],44.2%
same,"viability, T/C",[7],39.2%
same,"viability, T/C",[8],30.9%
same,"viability, T/C",[9],18.8%
same,"viability, T/C",[10],11.9%
same,"viability, T/C",[11],0.29%
same,"viability, T/C",[12],48.4%
same,"viability, T/C",[13],40.6%
same,"viability, T/C",[14],25.3%
same,"viability, T/C",[15],20.1%
same,"viability, T/C",[16],5.83%
same,"viability, T/C",[17],0.17%
same,"viability, T/C",[18],56.8%
same,"viability, T/C",[19],43.7%
same,"viability, T/C",[20],29.2%
same,"viability, T/C",[21],15.8%
same,"viability, T/C",[22],2.31%
same,"viability, T/C",[23],0.19%
same,"viability, T/C",[24],52.8%
same,"viability, T/C",[25],41.5%
same,"viability, T/C",[26],25.7%
same,"viability, T/C",[27],16.9%
same,"viability, T/C",[28],2.53%
same,"viability, T/C",[29],0.13%
same,"viability, T/C",[30],38.1%
same,"viability, T/C",[31],36.4%
same,"viability, T/C",[32],24.8%
same,"viability, T/C",[33],19.2%
same,"viability, T/C",[34],3.45%
same,"viability, T/C",[35],0.21%
CC1(C)CCC(CN2CCN(c3ccc(C(=O)NS(=O)(=O)c4ccc(NCC5CCOCC5)c([N+](=O)[O-])c4)c(Oc4cnc5[nH]ccc5c4)c3)CC2)=C(c2ccc(Cl)cc2)C1,"viability, T/C",compound 0.0316 µM,102% [middle of 5 runs]
same,"viability, T/C",compound 0.1 µM,98.2% [middle of 5 runs]
same,"viability, T/C",compound 0.316 µM,95.9% [middle of 5 runs]
same,"viability, T/C",compound 1 µM,100% [middle of 5 runs]
same,"viability, T/C",compound 3.16 µM,27.2% [middle of 5 runs]
same,"viability, T/C",compound 10 µM,10.3% [middle of 5 runs]
same,IC50,curve of compound,2.17 µM [middle of 4 runs]
Cn1ncnc1[C@H]1c2n[nH]c(=O)c3cc(F)cc(c23)N[C@@H]1c1ccc(F)cc1 + CNCc1ccccc1-c1csc(C(C)Nc2nc(C)nc3cc(OC)c(OC)cc23)c1,IC50,[1],> 100 nM
same,IC50,[2],> 100 nM
same,IC50,[3],24 nM
same,IC50,[4],< 0.316 nM
same,IC50,[5],< 0.316 nM
same,"viability, T/C","second compound 0.1 µM, first compound 0.000316 µM",87.7%
same,"viability, T/C","second compound 0.1 µM, first compound 0.001 µM",87.8%
same,"viability, T/C","second compound 0.1 µM, first compound 0.00316 µM",84.2%
same,"viability, T/C","second compound 0.1 µM, first compound 0.01 µM",81.3%
same,"viability, T/C",[6],75.9%
same,"viability, T/C",[7],63.5%
same,"viability, T/C","second compound 0.316 µM, first compound 0.000316 µM",77.3%
same,"viability, T/C","second compound 0.316 µM, first compound 0.001 µM",84.3%
same,"viability, T/C","second compound 0.316 µM, first compound 0.00316 µM",79.9%
same,"viability, T/C","second compound 0.316 µM, first compound 0.01 µM",69.2%
same,"viability, T/C",[12],65.5%
same,"viability, T/C",[13],56.9%
same,"viability, T/C","second compound 1 µM, first compound 0.000316 µM",57.3%
same,"viability, T/C","second compound 1 µM, first compound 0.001 µM",55.7%
same,"viability, T/C","second compound 1 µM, first compound 0.00316 µM",57.6%
same,"viability, T/C","second compound 1 µM, first compound 0.01 µM",52.6%
same,"viability, T/C",[18],48.6%
same,"viability, T/C",[19],41.4%
same,"viability, T/C","second compound 3.16 µM, first compound 0.000316 µM",0.07%
same,"viability, T/C","second compound 3.16 µM, first compound 0.001 µM",0.08%
same,"viability, T/C","second compound 3.16 µM, first compound 0.00316 µM",0.08%
same,"viability, T/C","second compound 3.16 µM, first compound 0.01 µM",0.07%
same,"viability, T/C",[24],0.08%
same,"viability, T/C",[25],0.13%
same,"viability, T/C","second compound 10 µM, first compound 0.000316 µM",0.08%
same,"viability, T/C","second compound 10 µM, first compound 0.001 µM",0.08%
same,"viability, T/C","second compound 10 µM, first compound 0.00316 µM",0.48%
same,"viability, T/C","second compound 10 µM, first compound 0.01 µM",0.87%
same,"viability, T/C",[30],0.35%
same,"viability, T/C",[31],0.15%
COc1cc(OC)cc(N(CCNC(C)C)c2ccc3ncc(-c4cnn(C)c4)nc3c2)c1,"viability, T/C",compound 0.0316 µM,72.9% [middle of 5 runs]
same,"viability, T/C",compound 0.1 µM,77.1% [middle of 5 runs]
same,"viability, T/C",compound 0.316 µM,77.7% [middle of 5 runs]
same,"viability, T/C",compound 1 µM,69.4% [middle of 5 runs]
same,"viability, T/C",compound 3.16 µM,45.9% [middle of 5 runs]
same,"viability, T/C",compound 10 µM,0.9% [middle of 5 runs]
same,IC50,curve of compound,2.48 µM [middle of 5 runs]
Cn1nccc1Nc1nccc(-c2cc3c(s2)C(C)(C)N(CCN2CCOCC2)C3=O)n1 + CNCc1ccccc1-c1csc(C(C)Nc2nc(C)nc3cc(OC)c(OC)cc23)c1,IC50,[1],83.9 nM
same,IC50,[2],66.6 nM
same,IC50,[3],< 31.6 nM
same,IC50,[4],< 31.6 nM
same,IC50,[5],< 31.6 nM
same,"viability, T/C",[6],73.9%
same,"viability, T/C",[7],45.7%
same,"viability, T/C",[8],19%
same,"viability, T/C",[9],12.3%
same,"viability, T/C",[10],10.2%
same,"viability, T/C",[11],10.2%
same,"viability, T/C",[12],68.8%
same,"viability, T/C",[13],39.7%
same,"viability, T/C",[14],18.6%
same,"viability, T/C",[15],10.9%
same,"viability, T/C",[16],9.74%
same,"viability, T/C",[17],10.6%
same,"viability, T/C",[18],47.1%
same,"viability, T/C",[19],30.1%
same,"viability, T/C",[20],14.5%
same,"viability, T/C",[21],11.1%
same,"viability, T/C",[22],8.76%
same,"viability, T/C",[23],6.3%
same,"viability, T/C",[24],0.09%
same,"viability, T/C",[25],0.29%
same,"viability, T/C",[26],0.03%
same,"viability, T/C",[27],0.03%
same,"viability, T/C",[28],0.03%
same,"viability, T/C",[29],0.11%
same,"viability, T/C",[30],0.08%
same,"viability, T/C",[31],0.09%
same,"viability, T/C",[32],0.1%
same,"viability, T/C",[33],0.09%
same,"viability, T/C",[34],0.1%
same,"viability, T/C",[35],0.15%
CC1(C)CCC(CN2CCN(c3ccc(C(=O)NS(=O)(=O)c4ccc(NCC5CCOCC5)c([N+](=O)[O-])c4)c(Oc4cnc5[nH]ccc5c4)c3)CC2)=C(c2ccc(Cl)cc2)C1 + COc1cc2nc(C)nc(NC(C)c3cc(N)cc(C(F)(F)F)c3)c2cc1OC1CCOC1,IC50,[1],2090 nM
same,IC50,[2],2180 nM
same,IC50,[3],1820 nM
same,IC50,[4],1380 nM
same,IC50,[5],< 31.6 nM
same,"viability, T/C",[6],105%
same,"viability, T/C",[7],94.4%
same,"viability, T/C",[8],91.9%
same,"viability, T/C",[9],93.4%
same,"viability, T/C",[10],25.6%
same,"viability, T/C",[11],14.3%
same,"viability, T/C",[12],88.9%
same,"viability, T/C",[13],81%
same,"viability, T/C",[14],88.9%
same,"viability, T/C",[15],91.6%
same,"viability, T/C",[16],32.1%
same,"viability, T/C",[17],8.02%
same,"viability, T/C",[18],84.1%
same,"viability, T/C",[19],80.5%
same,"viability, T/C",[20],83%
same,"viability, T/C",[21],85.8%
same,"viability, T/C",[22],19.5%
same,"viability, T/C",[23],8.25%
same,"viability, T/C",[24],70.8%
same,"viability, T/C",[25],70.6%
same,"viability, T/C",[26],73.2%
same,"viability, T/C",[27],63.4%
same,"viability, T/C",[28],15.6%
same,"viability, T/C",[29],8.28%
same,"viability, T/C",[30],36.8%
same,"viability, T/C",[31],31%
same,"viability, T/C",[32],33.6%
same,"viability, T/C",[33],27.3%
same,"viability, T/C",[34],7.17%
same,"viability, T/C",[35],6.32%
